# Data from PubChem BioAssay (NCI).
#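 Protocol summary: plate cells (96-well), add compound at 5 concentrations, incubate 48 h, interpolate endpoints linearly. GI50 marks 50% less growth. Definition used: TGI = concentration required for complete inhibition of growth.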
# How the values were obtained:
# Assay in all cases: growth of human tumour cells (NCI), 48 h
# DU-145 prostate = system: DU-145 prostate
# U251 CNS = system: U251 CNS
# SNB-75 CNS = system: SNB-75 CNS
# SNB-19 CNS = system: SNB-19 CNS
# MOLT-4 leukemia = system: MOLT-4 leukemia
# SK-MEL-28 melanoma = system: SK-MEL-28 melanoma
# A549 NSCLC = system: A549 NSCLC
# SF-295 CNS = system: SF-295 CNS
# NCI-H226 lung = system: NCI-H226 lung
# HOP-62 NSCLC = system: HOP-62 NSCLC
# HOP-92 NSCLC = system: HOP-92 NSCLC
# CAKI-1 renal = system: CAKI-1 renal
# BT-549 breast = system: BT-549 breast
# MDA-MB-435 = system: MDA-MB-435
# HCC-2998 colon = system: HCC-2998 colon
# T-47D breast = system: T-47D breast
# NCI-H23 lung = system: NCI-H23 lung
# HS 578T breast = system: HS 578T breast
# SF-539 CNS = system: SF-539 CNS
# NCI-H522 lung = system: NCI-H522 lung
# PC-3 prostate = system: PC-3 prostate
# HT29 colon = system: HT29 colon
# SK-OV-3 ovarian = system: SK-OV-3 ovarian
# 786-0 renal = system: 786-0 renal
# HL-60(TB) leukemia = system: HL-60(TB) leukemia
# UACC-257 melanoma = system: UACC-257 melanoma
# SK-MEL-2 melanoma = system: SK-MEL-2 melanoma
# OVCAR-4 ovarian = system: OVCAR-4 ovarian
# EKVX NSCLC = system: EKVX NSCLC
# SK-MEL-5 melanoma = system: SK-MEL-5 melanoma
# CCRF-CEM leukemia = system: CCRF-CEM leukemia
# UO-31 renal = system: UO-31 renal
# HCT-116 colon = system: HCT-116 colon
# A498 renal = system: A498 renal
# HCT-15 colon = system: HCT-15 colon
# SN12C renal = system: SN12C renal
# MDA-MB-468 breast = system: MDA-MB-468 breast
# SW-620 colon = system: SW-620 colon
# TK-10 renal = system: TK-10 renal
# M14 melanoma = system: M14 melanoma
# OVCAR-5 ovarian = system: OVCAR-5 ovarian
# MCF7 breast = system: MCF7 breast
# IGROV1 ovarian = system: IGROV1 ovarian
# K-562 leukemia = system: K-562 leukemia
# NCI-H460 lung = system: NCI-H460 lung
# UACC-62 melanoma = system: UACC-62 melanoma
# MALME-3M melanoma = system: MALME-3M melanoma
# RXF 393 renal = system: RXF 393 renal
# MDA-MB-231 breast = system: MDA-MB-231 breast
# SF-268 CNS = system: SF-268 CNS
# OVCAR-8 ovarian = system: OVCAR-8 ovarian
# COLO 205 colon = system: COLO 205 colon
# ACHN renal = system: ACHN renal
# LOX IMVI melanoma = system: LOX IMVI melanoma
# SR leukemia = system: SR leukemia
# OVCAR-3 ovarian = system: OVCAR-3 ovarian
# KM12 colon = system: KM12 colon
smiles,measurement,setting,value
O=C(/C=C/c1ccccc1)c1nc2ccccc2n1Cc1ccc(F)cc1,GI50,DU-145 prostate,3.67 µM
same,TGI,DU-145 prostate,14.2 µM
same,GI50,U251 CNS,1.62 µM
same,TGI,U251 CNS,3.19 µM
same,GI50,SNB-75 CNS,1.72 µM
same,TGI,SNB-75 CNS,10.9 µM
same,GI50,SNB-19 CNS,2.13 µM
same,TGI,SNB-19 CNS,5.76 µM
same,GI50,MOLT-4 leukemia,3.16 µM
same,TGI,MOLT-4 leukemia,> 100 µM
same,GI50,SK-MEL-28 melanoma,2.18 µM
same,TGI,SK-MEL-28 melanoma,5.25 µM
same,GI50,A549 NSCLC,4.82 µM
same,TGI,A549 NSCLC,21.1 µM
same,GI50,SF-295 CNS,3.19 µM
same,TGI,SF-295 CNS,10.8 µM
same,GI50,NCI-H226 lung,13.8 µM
same,TGI,NCI-H226 lung,34.4 µM
same,GI50,HOP-62 NSCLC,3.93 µM
same,TGI,HOP-62 NSCLC,12.6 µM
same,GI50,HOP-92 NSCLC,4.03 µM
same,TGI,HOP-92 NSCLC,20.4 µM
same,GI50,CAKI-1 renal,2.97 µM
same,TGI,CAKI-1 renal,12.5 µM
same,GI50,BT-549 breast,2.54 µM
same,TGI,BT-549 breast,7.59 µM
same,GI50,MDA-MB-435,2.23 µM
same,TGI,MDA-MB-435,5.92 µM
same,GI50,HCC-2998 colon,1.83 µM
same,TGI,HCC-2998 colon,3.91 µM
same,GI50,T-47D breast,2.71 µM
same,TGI,T-47D breast,12.1 µM
same,GI50,NCI-H23 lung,2.66 µM
same,TGI,NCI-H23 lung,8.6 µM
same,GI50,HS 578T breast,4.76 µM
same,TGI,HS 578T breast,47.6 µM
same,GI50,SF-539 CNS,2.01 µM
same,TGI,SF-539 CNS,4.18 µM
same,GI50,NCI-H522 lung,2.42 µM
same,TGI,NCI-H522 lung,5.85 µM
same,GI50,PC-3 prostate,4.13 µM
same,TGI,PC-3 prostate,26.7 µM
same,GI50,HT29 colon,3.26 µM
same,TGI,HT29 colon,9.14 µM
same,GI50,SK-OV-3 ovarian,18.9 µM
same,TGI,SK-OV-3 ovarian,45.5 µM
same,GI50,786-0 renal,1.82 µM
same,TGI,786-0 renal,3.49 µM
same,GI50,HL-60(TB) leukemia,2.44 µM
same,TGI,HL-60(TB) leukemia,12.4 µM
same,GI50,UACC-257 melanoma,4.1 µM
same,TGI,UACC-257 melanoma,17 µM
same,GI50,SK-MEL-2 melanoma,5.11 µM
same,TGI,SK-MEL-2 melanoma,17.1 µM
same,GI50,OVCAR-4 ovarian,11.1 µM
same,TGI,OVCAR-4 ovarian,28.6 µM
same,GI50,EKVX NSCLC,4.86 µM
same,TGI,EKVX NSCLC,17 µM
same,GI50,SK-MEL-5 melanoma,3.49 µM
same,TGI,SK-MEL-5 melanoma,14.4 µM
same,GI50,CCRF-CEM leukemia,4.43 µM
same,TGI,CCRF-CEM leukemia,> 100 µM
same,GI50,UO-31 renal,1.77 µM
same,TGI,UO-31 renal,4.21 µM
same,GI50,HCT-116 colon,1.92 µM
same,TGI,HCT-116 colon,3.84 µM
same,GI50,A498 renal,18.5 µM
same,TGI,A498 renal,33.1 µM
same,GI50,HCT-15 colon,1.75 µM
same,TGI,HCT-15 colon,3.66 µM
same,GI50,SN12C renal,3.7 µM
same,TGI,SN12C renal,13.8 µM
same,GI50,MDA-MB-468 breast,1.92 µM
same,TGI,MDA-MB-468 breast,3.73 µM
same,GI50,SW-620 colon,2.15 µM
same,TGI,SW-620 colon,4.45 µM
same,GI50,TK-10 renal,2.9 µM
same,TGI,TK-10 renal,10.4 µM
same,GI50,M14 melanoma,3.17 µM
same,TGI,M14 melanoma,11.4 µM
same,GI50,OVCAR-5 ovarian,3.31 µM
same,TGI,OVCAR-5 ovarian,11.6 µM
same,GI50,MCF7 breast,1.77 µM
same,TGI,MCF7 breast,6.02 µM
same,GI50,IGROV1 ovarian,2.33 µM
same,TGI,IGROV1 ovarian,5.89 µM
same,GI50,K-562 leukemia,3.1 µM
same,TGI,K-562 leukemia,> 100 µM
same,GI50,NCI-H460 lung,2.14 µM
same,TGI,NCI-H460 lung,5.38 µM
same,GI50,UACC-62 melanoma,2.42 µM
same,TGI,UACC-62 melanoma,10.4 µM
same,GI50,MALME-3M melanoma,3.52 µM
same,TGI,MALME-3M melanoma,14.5 µM
same,GI50,RXF 393 renal,1.56 µM
same,TGI,RXF 393 renal,3 µM
same,GI50,MDA-MB-231 breast,1.98 µM
same,TGI,MDA-MB-231 breast,4.17 µM
same,GI50,SF-268 CNS,7.22 µM
same,TGI,SF-268 CNS,30.2 µM
same,GI50,OVCAR-8 ovarian,2.56 µM
same,TGI,OVCAR-8 ovarian,6.88 µM
same,GI50,COLO 205 colon,3.18 µM
same,TGI,COLO 205 colon,7.86 µM
same,GI50,ACHN renal,3.66 µM
same,TGI,ACHN renal,12.6 µM
same,GI50,LOX IMVI melanoma,1.62 µM
same,TGI,LOX IMVI melanoma,3.1 µM
same,GI50,SR leukemia,2.99 µM
same,TGI,SR leukemia,> 100 µM
same,GI50,OVCAR-3 ovarian,2 µM
same,TGI,OVCAR-3 ovarian,4.14 µM
same,GI50,KM12 colon,2.18 µM
same,TGI,KM12 colon,5.01 µM
